Test results taken from patent US5962463A, “Methods of stimulating non-amyloidogenic processing of the amyloid precursor protein” (Massachusetts Institute Of Technology, priority 1997, dated 1999).
Counter-ions that a name gives are not always drawn.

What was measured:
[1] = biological target: T1, human brain serotonin 5HT1C receptor (Homo sapiens, UniProt P28335); conditions: for effect on receptor-activated APP release in response to dexnorfenfluramine: 5HT1C transfected cell lines, FIG. 3
T1 sequence (P28335 33-458): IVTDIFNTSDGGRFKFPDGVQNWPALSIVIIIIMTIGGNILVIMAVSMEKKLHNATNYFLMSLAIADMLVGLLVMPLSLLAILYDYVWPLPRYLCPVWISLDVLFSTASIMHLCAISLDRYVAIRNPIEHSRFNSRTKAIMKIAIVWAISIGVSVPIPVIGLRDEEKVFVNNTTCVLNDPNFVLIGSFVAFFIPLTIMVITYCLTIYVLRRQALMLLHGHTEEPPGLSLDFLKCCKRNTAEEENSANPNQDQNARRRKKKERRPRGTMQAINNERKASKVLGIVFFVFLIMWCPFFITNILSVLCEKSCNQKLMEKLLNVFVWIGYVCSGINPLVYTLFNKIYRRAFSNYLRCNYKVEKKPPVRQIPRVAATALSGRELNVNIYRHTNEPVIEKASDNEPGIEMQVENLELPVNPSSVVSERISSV

[2] = biological target: human brain serotonin 5HT2 receptor (Homo sapiens, UniProt P28223); conditions: for effect on receptor-activated APP release in response to serotonin: 5HT2 transfected cell lines, insert in FIG. 1C
slices of rat brain = conditions: 100 μM, incubated in slices of rat brain; cited from earlier work
[3] = test system: human serotonin-1C surface receptor; assay: Phosphatidylinositol turnover in NIH 3T3 cells expressing the 5HT1C receptor; format: cell-based; conditions: NIH 3T3 cells expressing 5-HT1C, FIG. 2B
From the text: FIG. 2A is a graphic representation of concentration dependent APP^S release by NIH 3T3 cells transfected with and expressing the gene for the human serotonin-1C surface receptor in response to activation by dexnorfenfluramine. FIG. 2B is a graphic representation of phosphatidylinositol turnover in the same cells in response to activation by dexnorfenfluramine.
In this instance, the agent interacts with and stimulates the serotonin surface receptor directly. […] Additional evidence is provided by the observation that turnover of phosphatidylinositol is stimulated in these cells by dexnorfenfluramine (FIG. 2B).

APP release = APP release and cell-associated APP in serotonin receptor transfected 3T3 cells (receptor subtype not stated); format: cell-based, human
[4] = test system: nontransfected human 3T3 cells; assay: Basal release of APP fragments from wild-type (nontransfected) 3T3 cells; format: cell-based; conditions: wild-type cell lines, FIGS. 1A and 1C
From the text: Cultured human NIH 3T3 fibroblasts were utilized.
Molecular weight standards were obtained from Amersham.

[5] = taken orally by an individual; cited from earlier work
[6] = 10 μM serotonin, 5HT2 transfected cells, FIG. 1D
[7] = stimulation with serotonin, Western blot

CN1CCN2c3ccccc3Cc3ccccc3C2C1 (centres unmarked) [mianserin]
effect on receptor-activated APP release in response to dexnorfenfluramine [1]: blocked

Cc1nc2sccn2c(=O)c1CCN1CCC(=C(c2ccc(F)cc2)c2ccc(F)cc2)CC1 [ritanserin]
effect on receptor-activated APP release in response to serotonin [2]: blocked | effect on receptor-activated APP release in response to dexnorfenfluramine [1]: blocked

C[C@H](N)Cc1cccc(C(F)(F)F)c1 [dexnorfenfluramine, (+) 1-[3-(trifluoromethyl)-phenyl] propan-2-amine hydrochloride]
increase in the release of serotonin (slices of rat brain): 6-7 fold | increase of basal APP release ([1]; 5HT1C transfected cells, normalized to vehicle-treated controls): 3 fold | turnover of phosphatidylinositol [3]: stimulated

O=C(c1ccc(F)cc1)C1CCN(CCn2c(=O)[nH]c3ccccc3c2=O)CC1 [ketanserin]
effect on receptor-activated APP release in response to serotonin [2]: blocked | effect on receptor-activated APP release in response to dexnorfenfluramine [1]: blocked

NCCc1c[nH]c2ccc(O)cc12 [serotonin]
time to half-maximal stimulation of APP release [2, 6]: 30 to 40 min | time to maximum stimulation of APP release [2, 6]: ≤ 120 min | 128 kD APP derivative secreted into the culture medium (APP release; [7]): increase | abundance of cell-associated 115 kD APP (APP release; [7]): remained unaffected | abundance of cell-associated 141 kD APP (APP release; [7]): decreased | stimulation of basal release of APP fragments [4]: not stimulated

CN[C@@H]1C[C@H]2O[C@@](C)([C@@H]1OC)n1c3ccccc3c3c4c(c5c6ccccc6n2c5c31)C(=O)NC4 [staurosporine]
effect on the serotonin effect on APP release (APP release; serotonin-stimulated transfected cells): inhibited

CCN[C@@H](C)Cc1cccc(C(F)(F)F)c1 [dexfenfluramine]
amounts of dexfenfluramine and its de-ethylated metabolite dexnorfenfluramine appearing in the brain [5]: roughly equal amounts

CNc1ccc2oc(C[C@H]3O[C@@]4(CC[C@H]3C)O[C@H]([C@H](C)C(=O)c3ccc[nH]3)[C@H](C)C[C@H]4C)nc2c1C(=O)O [A23187]
ability to mimic the receptor-mediated stimulation of basal APP release (APP release; calcium ionophore, increased intracellular calcium alone): failure
